{"source": "patent US20040006777A1", "about": "“Human lymphoid protein tyrosine phosphatases” (HSC Research and Development Limited Partnership, priority 1998, published 2004)", "key": {"Lyp1": {"target": "T1, Lyp1 (Homo sapiens, UniProt Q9Y2R2)", "T1 construct": "made in house; host or cells: COS cells (transient transfection, pcDNA3); anti-T7 immunoprecipitate", "T1 sequence (Q9Y2R2 1-807)": "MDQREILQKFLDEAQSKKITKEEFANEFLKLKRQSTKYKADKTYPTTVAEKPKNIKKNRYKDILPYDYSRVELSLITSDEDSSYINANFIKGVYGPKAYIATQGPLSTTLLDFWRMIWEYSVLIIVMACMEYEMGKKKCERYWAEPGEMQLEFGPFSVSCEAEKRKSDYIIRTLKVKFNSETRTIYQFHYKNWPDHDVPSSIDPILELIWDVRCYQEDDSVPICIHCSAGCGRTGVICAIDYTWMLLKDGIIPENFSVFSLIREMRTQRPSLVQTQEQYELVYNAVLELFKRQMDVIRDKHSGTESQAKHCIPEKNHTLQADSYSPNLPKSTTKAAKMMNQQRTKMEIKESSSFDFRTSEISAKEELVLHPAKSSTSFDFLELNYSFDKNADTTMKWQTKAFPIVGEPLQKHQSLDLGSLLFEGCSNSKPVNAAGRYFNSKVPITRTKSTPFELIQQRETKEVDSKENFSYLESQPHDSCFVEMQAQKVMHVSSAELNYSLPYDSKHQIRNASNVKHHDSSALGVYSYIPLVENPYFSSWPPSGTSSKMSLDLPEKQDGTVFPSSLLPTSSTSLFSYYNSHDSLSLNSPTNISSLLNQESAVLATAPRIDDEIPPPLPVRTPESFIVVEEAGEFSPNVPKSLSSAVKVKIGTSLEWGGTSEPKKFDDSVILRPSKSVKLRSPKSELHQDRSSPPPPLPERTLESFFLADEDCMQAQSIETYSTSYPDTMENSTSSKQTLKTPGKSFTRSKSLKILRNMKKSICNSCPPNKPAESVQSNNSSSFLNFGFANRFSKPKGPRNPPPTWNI", "assay": "In vitro phosphatase assay with 33P labelled Raytide peptide and Lyp immunoprecipitates", "assay_type": "biochemical", "conditions": "data not shown", "procedure": "Anti-Lyp immunoprecipitates from untransfected and pcDNA3-Lyp1 transfected cells were prepared in pervanadate free lysis buffer and incubated with ^33P labelled substrate Raytide. At the indicated time points reactions were stopped by the addition of charcoal and the free ^33P released from the peptide and now present in the supernatant measured by liquid scintillation counting.\nRaytide peptide was ^33P labelled on tyrosine residues in vitro using the tyrosine kinase p60src and purified on phosphocellulose paper. Release of ^33P over time was measured in the phosphatase assay and compared to controls from untransfected cells.\nSpecifically, the synthetic peptide Raytide was phosphorylated according to the method described by Guan et al., (1994)(54), on tyrosine by p60src (Oncogene Science) as follows: 10 μg Raytide in 50 mM Hepes pH 7.5, 10 mM MgCl2, 0.067% mercaptoethanol, 0.05 mM ATP was incubated with 300 μCiγ^33P ATP per ml and 2 μg p60src in a final volume of 30 μl. The reaction was allowed to proceed for 30 minutes at 30° C. and was stopped by the addition of […] 10% phosphoric acid.\nThe sample was spotted onto two 1×1 cm sheets of P81 phophocellulose paper and extensively washed with 0.5% phosphoric acid. […]\nThe phosphorylated substrate was used in the phosphatase assay as described by Stueli et al (1989)(54). […] After centrifugation the free ^33P in the supernatant was measured."}, "Cbl": {"tested_on": "Cbl", "conditions": "Jurkat cells, pervanadate treatment; cited from earlier work"}}}
{"substance": "pervanadate [reference compound]", "values": [{"measurement": "inhibition of Lyp tyrosine phosphatase activity", "setting": "Lyp1", "value": "completely inhibited"}, {"measurement": "phosphorylation of Cbl", "setting": "Cbl", "value": "marked increase"}]}
